Assay [1] addresses T1, B1R receptor of rats (rB1R) (Rattus norvegicus, UniProt P97583).
T1 construct: host or cells: CHO K1 cells
T1 sequence (P97583 1-337): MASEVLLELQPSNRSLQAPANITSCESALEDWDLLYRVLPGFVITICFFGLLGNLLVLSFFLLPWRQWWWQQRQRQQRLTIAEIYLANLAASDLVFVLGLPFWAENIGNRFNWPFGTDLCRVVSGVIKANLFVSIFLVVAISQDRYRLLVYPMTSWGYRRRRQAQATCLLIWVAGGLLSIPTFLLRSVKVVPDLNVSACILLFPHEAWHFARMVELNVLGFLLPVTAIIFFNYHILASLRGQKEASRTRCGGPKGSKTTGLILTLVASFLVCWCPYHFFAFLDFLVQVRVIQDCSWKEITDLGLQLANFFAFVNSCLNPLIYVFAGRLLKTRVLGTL
The assay is described as follows: FLIPR Ca2+ assay on rat bradykinin 1 receptor (CHO K1 rB1R cells). The assay is classed as cell-based. Particulars: test substance 10 μM; CHO K1 cells with B1R gene of rats; agonist Des-Arg9-bradykinin 100 nM; compared to maximum achievable inhibition. On the procedure: (§1) The agonistic or antagonistic action of compounds can be quantified on the bradykinin 1 receptor (B1R) of humans and rats with ectopically expressing cell lines (CHO K1 cells) and with the aid of a Ca^2+-sensitive dye (Fluo-4) in the fluorescent imaging plate reader (FLIPR). The figure in percent activation refers to the Ca^2+ signal after addition of Lys-Des-Arg^9-bradykinin (0.5 nM) and Des-Arg^9-bradykinin (100 nM). Antagonists result in a suppression of the Ca^2+ inflow after the addition of the agonist. Percent inhibition values are given in comparison to the maximum achievable inhibition.
(§2) The agonistic or antagonistic action of substances can be determined on the bradykinin 1 receptor (B1R) of humans and rats by means of the following assay.
(§3) According to this assay the Ca^2+ inflow through the channel is quantified by means of a Ca^2+-sensitive dye (Fluo-4 type, Molecular Probes Europe BV, Leiden, Netherlands), in a Fluorescent Imaging Plate Reader (FLIPR, Molecular Devices, Sunnyvale, USA). Method:
(§4) Chinese hamster ovary cells (CHO K1 cells) are used, which are stably transfected with the human B1R gene (hB1R cells, Euroscreen s.a., Gosselies, Belgium), or with the B1R gene of rats (rB1R cells, Axxam, Milan, Italy). For functional investigations these cells are plated out on black 96-well plates with a clear floor (BD Biosciences, Heidelberg, Germany) in a density of 20,000/25,000 cells/well. The cells are incubated overnight with 10 vol. % FBS (foetal bovine serum, Gibco Invitrogen GmbH, Karlsruhe, Germany) at 37° C. and 5% CO2 in a culture medium (hB1R cells: Nutrient Mixture Ham's F12, Gibco Invitrogen GmbH, Karlsruhe, Germany; rB1R cells: D-MEM/F12, Gibco Invitrogen GmbH, Karlsruhe, Germany). The following day the cells are charged for 60 minutes at 37° C. with 2.13 μM Fluo-4 (Molecular Probes Europe BV, Leiden, Netherlands) in HBSS buffer (Hank's buffered saline solution, Gibco Invitrogen GmbH, Karlsruhe, Germany) together with […] (Sigma-Aldrich, Taufkirchen, Germany) and 10 mM HEPES (Sigma-Aldrich, Taufkirchen, Germany).
(§5) The plates are then washed twice with HBSS buffer and HBSS buffer is added which additionally contains 0.1% BSA (bovine serum albumin; Sigma-Aldrich, Taufkirchen, Germany), 5.6 mM glucose and 0.05% gelatin (Merck KGaA, Darmstadt, Germany). After further incubation for 20 minutes at room temperature the plates are used for the Ca^2+ measurement in the FLIPR. The Ca^2+-dependent fluorescence is measured both before and after the addition of substances (λex=488 nm, λem=540 nm). The quantification is carried out by measuring the highest fluorescence intensity (FC, fluorescence counts) over time.
(§6) The FLIPR protocol consists of two substance additions. First of all test substances (10 μM) are pipetted onto the cells and the Ca^2+ inflow is compared with the control (hB1R: Lys-Des-Arg9-bradykinin 0.5 nM; rB1R: Des-Arg9-bradykinin 100 nM). This gives the result in percent activation referred to the Ca^2+ signal after addition of Lys-Des-Arg9-bradykinin (0.5 nM), bzw. Des-Arg9-bradykinin (100 nM). After 10 minutes' incubation 0.5 nM Lys-Des-Arg9-bradykinin (hB1R) and 100 nM Des-Arg^9-bradykinin (rB1R) are applied and the inflow of Ca^2+ is likewise determined. Antagonists lead to a suppression of the Ca^2+ inflow. The percent inhibition compared to the maximum achievable inhibition is calculated. The compounds show a good activity on both human and rat receptors.
(§7) The agonistic and antagonistic action of the compounds according to the invention on the bradykinin 1 receptor (B1R) of humans and rats were determined as described above. Antagonists lead to a suppression of the Ca^2+ inflow. The % inhibition compared to the maximum achievable inhibition was calculated.

Assay [2] concerns the target T2, human B1R receptor (hB1R) (Homo sapiens, UniProt P46663).
T2 construct: host or cells: CHO K1 cells
T2 sequence (P46663 1-353): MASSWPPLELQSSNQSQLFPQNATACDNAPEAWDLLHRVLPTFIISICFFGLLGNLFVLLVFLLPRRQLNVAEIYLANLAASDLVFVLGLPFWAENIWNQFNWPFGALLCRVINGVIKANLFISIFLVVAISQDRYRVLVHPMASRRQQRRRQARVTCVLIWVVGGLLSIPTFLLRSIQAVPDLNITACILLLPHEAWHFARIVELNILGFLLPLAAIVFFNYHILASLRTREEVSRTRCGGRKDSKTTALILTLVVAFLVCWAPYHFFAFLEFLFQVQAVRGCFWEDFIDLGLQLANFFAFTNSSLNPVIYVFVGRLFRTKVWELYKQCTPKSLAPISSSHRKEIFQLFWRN
As to the kind of experiment: FLIPR Ca2+ assay on human bradykinin 1 receptor (CHO K1 hB1R cells). In kind it is cell-based. Particulars: test substance 10 μM; CHO K1 cells with human B1R gene; agonist Lys-Des-Arg9-bradykinin 0.5 nM; compared to maximum achievable inhibition. How it is done:
as §1, §2, §3, §4, §5, §6, §7

Structures are written as SMILES.

For `COc1cc(C)c(S(=O)(=O)N(CCOCC(=O)N2CCn3cccc3C2C)Cc2ccccc2)c(C)c1` (stereo not shown) [Example 45, N-benzyl-4-methoxy-2,6-dimethyl-N-(2-(2-(1-methyl-3,4-dihydropyrrolo[1,2-a]pyrazin-2(1H)-yl)-2-oxoethoxy)ethyl)benzenesulfonamide], the values for the inhibition at 10 µM in assay [1] and in assay [2] were 99% and 83%, respectively.

Consider `COc1cc(C)c(S(=O)(=O)N(C)CCOCC(=O)N2CCn3c(CN4CCN(C)CC4)ccc3C2)c(C)c1` [Example 9, 4-methoxy-N,2,6-trimethyl-N-(2-(2-(6-((4-methylpiperazin-1-yl)methyl)-3,4-dihydropyrrolo[1,2-a]pyrazin-2(1H)-yl)-2-oxoethoxy)ethyl)benzenesulfonamide], for which the values for the inhibition at 10 µM in assay [1] and in assay [2] were 102% and 101%, respectively.

Regarding `Cc1cc(C)c(S(=O)(=O)N(C)CCOCC(=O)N2CCn3cccc3C2c2ccc(C(F)(F)F)cc2F)c(C)c1` (stereo not shown) [Example 77, N-(2-(2-(1-(2-fluoro-4-(trifluoromethyl)phenyl)-3,4-dihydropyrrolo[1,2-a]pyrazin-2(1H)-yl)-2-oxoethoxy)ethyl)-N,2,4,6-tetramethylbenzenesulfonamide], the inhibition at 10 µM in assay [1] is 53%; in assay [2] it was 71%.

Turning to `COc1c(C)cc(S(=O)(=O)N(C)CCOCC(=O)N2CCn3c(CN4CCCC4)ccc3C2c2ccccc2)c(C)c1C` (stereo not shown) [Example 106, 4-methoxy-N,2,3,5-tetramethyl-N-(2-(2-oxo-2-(1-phenyl-6-(pyrrolidin-1-ylmethyl)-3,4-dihydropyrrolo[1,2-a]pyrazin-2(1H)-yl)ethoxy)ethyl)benzene-sulfonamide], the inhibition at 10 µM is 101% in assay [1] and 99% in assay [2].

Consider `Cc1cc(C)c(S(=O)(=O)N(C)CCOCC(=O)N2CCn3c(CN(C)C)ccc3C2c2ccccc2)c(C)c1` (stereo not shown) [Example 139, N-(2-(2-(6-((dimethylamino)methyl)-1-phenyl-3,4-dihydropyrrolo[1,2-a]pyrazin-2(1H)-yl)-2-oxoethoxy)ethyl)-N,2,4,6-tetramethylbenzenesulfonamide], for which the inhibition at 10 µM was 103% in assay [1] and 102% in assay [2].

Turning to `COc1cc(C)c(S(=O)(=O)N(CCOCC(=O)N2CCn3c(CN4CCCC4)ccc3C2c2ccccc2)CC(C)C)c(C)c1C` (stereo not shown) [Example 92, N-isobutyl-4-methoxy-2,3,6-trimethyl-N-(2-(2-oxo-2-(1-phenyl-6-(pyrrolidin-1-ylmethyl)-3,4-dihydropyrrolo[1,2-a]pyrazin-2(1H)-yl)ethoxy)ethyl)benzene-sulfonamide], the inhibition at 10 µM in assay [1] and in assay [2] was 102% in each case.

`COc1cc(C)c(S(=O)(=O)N(C)CCOCC(=O)N2CCn3c(CCc4cccnc4)ccc3C2)c(C)c1` [Example 170, 4-Methoxy-N,2,6-trimethyl-N-(2-(2-oxo-2-(6-(2-(pyridin-3-yl)ethyl)-3,4-dihydropyrrolo[1,2-a]pyrazin-2(1H)-yl)ethoxy)ethyl)benzenesulfonamide]: the results for the inhibition at 10 µM in assay [1] and in assay [2] were 98% and 99%, respectively.

For the compound `COc1cc(C)c(S(=O)(=O)N(C)CCOCC(=O)N2CCn3c(CN4CCCC4)ccc3C2c2ccccc2)c(C)c1` (stereo not shown) [Example 15, 4-methoxy-N,2,6-trimethyl-N-(2-(2-oxo-2-(1-phenyl-6-(pyrrolidin-1-ylmethyl)-3,4-dihydropyrrolo[1,2-a]pyrazin-2(1H)-yl)ethoxy)ethyl)benzenesulfonamide], the inhibition at 10 µM in assay [1] and in assay [2] was 101% in each case.

Turning to `COc1cc(C)c(S(=O)(=O)N(C)CCOCC(=O)N2CCn3cccc3C2c2ccc(C)c(C)c2)c(C)c1C` (stereo not shown) [Example 86, N-(2-(2-(1-(3,4-dimethylphenyl)-3,4-dihydropyrrolo[1,2-a]pyrazin-2(1H)-yl)-2-oxoethoxy)ethyl)-4-methoxy-N,2,3,6-tetramethylbenzenesulfonamide], the values for the inhibition at 10 µM in assay [1] and in assay [2] were 71% and 91%, respectively.

In the case of `COc1cc(C)c(S(=O)(=O)N(CCOCC(=O)N2CCn3c(C)ccc3C2C(C)C)CC(C)C)c(C)c1C` (stereo not shown) [Example 104, N-isobutyl-N-(2-(2-(1-isopropyl-6-methyl-3,4-dihydropyrrolo[1,2-a]pyrazin-2(1H)-yl)-2-oxoethoxy)ethyl)-4-methoxy-2,3,6-trimethylbenzenesulfonamide], the inhibition at 10 µM in assay [1] was 102%; in assay [2], 93%.

As to `COc1c(C)cc(S(=O)(=O)N(C)CCOCC(=O)N2CCn3cccc3C2c2cccnc2)c(C)c1C` (stereo not shown) [Example 29, 4-methoxy-N,2,3,5-tetramethyl-N-(2-(2-oxo-2-(1-(pyridin-3-yl)-3,4-dihydropyrrolo[1,2-a]pyrazin-2(1H)-yl)ethoxy)ethyl)benzenesulfonamide], the inhibition at 10 µM was 79% in assay [1] and 96% in assay [2].

As for `COc1ccc(C2c3cccn3CCN2C(=O)COCCN(Cc2ccccc2)S(=O)(=O)c2c(C)cc(OC)cc2C)cc1` (stereo not shown) [Example 47, N-benzyl-4-methoxy-N-(2-(2-(1-(4-methoxyphenyl)-3,4-dihydropyrrolo[1,2-a]pyrazin-2(1H)-yl)-2-oxoethoxy)ethyl)-2,6-dimethylbenzenesulfonamide], the inhibition at 10 µM is 100% in assay [1] and 42% in assay [2].

With `COc1cc(C)c(S(=O)(=O)N(C)CCOCC(=O)N2CCn3c(CN(C)C)ccc3C2c2ccccc2)c(C)c1` (stereo not shown) [Example 14, N-(2-(2-(6-((dimethylamino)methyl)-1-phenyl-3,4-dihydropyrrolo[1,2-a]pyrazin-2(1H)-yl)-2-oxoethoxy)ethyl)-4-methoxy-N,2,6-trimethylbenzenesulfonamide], the inhibition at 10 µM stood at 100% in assay [1] and 103% in assay [2].

In the case of `COc1cc(C)c(S(=O)(=O)N(CCOCC(=O)N2CCn3cccc3C2C(C)C)CC(C)C)c(C)c1C` (stereo not shown) [Example 102, N-isobutyl-N-(2-(2-(1-isopropyl-3,4-dihydropyrrolo[1,2-a]pyrazin-2(1H)-yl)-2-oxoethoxy)ethyl)-4-methoxy-2,3,6-trimethylbenzenesulfonamide], the results for the inhibition at 10 µM in assay [1] and in assay [2] were 102% and 96%, respectively.

Source of the values: patent US8263598B2, “Substituted sulfonamide compounds” (Gruenenthal GmbH, priority 2008, dated 2012).
